This note sets out measurements from ChEMBL document CHEMBL1221255, “New halogenated 3-phenylcoumarins as potent and selective MAO-B inhibitors” (Bioorg Med Chem Lett, 2010).

Molecules are shown by their SMILES. Some results are limits rather than exact numbers.

In experiment [1] the target is T1, Amine oxidase [flavin-containing] B (Homo sapiens, UniProt P27338).
T1 sequence (P27338 whole entry): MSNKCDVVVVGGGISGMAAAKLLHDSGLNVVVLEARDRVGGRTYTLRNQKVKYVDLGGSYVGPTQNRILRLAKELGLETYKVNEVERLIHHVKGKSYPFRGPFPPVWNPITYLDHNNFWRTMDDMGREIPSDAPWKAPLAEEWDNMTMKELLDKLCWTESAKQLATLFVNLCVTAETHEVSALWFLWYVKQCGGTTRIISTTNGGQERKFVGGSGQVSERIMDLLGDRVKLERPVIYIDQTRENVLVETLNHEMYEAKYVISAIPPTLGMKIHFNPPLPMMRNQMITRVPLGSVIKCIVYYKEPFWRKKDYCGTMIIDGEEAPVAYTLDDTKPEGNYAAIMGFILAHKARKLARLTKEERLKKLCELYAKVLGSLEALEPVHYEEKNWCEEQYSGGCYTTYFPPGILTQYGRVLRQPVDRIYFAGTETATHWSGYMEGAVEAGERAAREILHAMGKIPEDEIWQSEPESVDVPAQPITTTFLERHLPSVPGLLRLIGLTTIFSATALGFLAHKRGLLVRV
The experiment in a line: Inhibition of human MAOB expressed in BTI insect cells. The format is cell-based.

For experiment [2], the species on record is Homo sapiens. Kind of experiment: Selectivity ratio of IC50 for human MAOA to IC50 for human MAOB.
The target of experiment [3] is T2, Amine oxidase [flavin-containing] A (Homo sapiens, UniProt P21397).
T2 sequence (P21397 whole entry): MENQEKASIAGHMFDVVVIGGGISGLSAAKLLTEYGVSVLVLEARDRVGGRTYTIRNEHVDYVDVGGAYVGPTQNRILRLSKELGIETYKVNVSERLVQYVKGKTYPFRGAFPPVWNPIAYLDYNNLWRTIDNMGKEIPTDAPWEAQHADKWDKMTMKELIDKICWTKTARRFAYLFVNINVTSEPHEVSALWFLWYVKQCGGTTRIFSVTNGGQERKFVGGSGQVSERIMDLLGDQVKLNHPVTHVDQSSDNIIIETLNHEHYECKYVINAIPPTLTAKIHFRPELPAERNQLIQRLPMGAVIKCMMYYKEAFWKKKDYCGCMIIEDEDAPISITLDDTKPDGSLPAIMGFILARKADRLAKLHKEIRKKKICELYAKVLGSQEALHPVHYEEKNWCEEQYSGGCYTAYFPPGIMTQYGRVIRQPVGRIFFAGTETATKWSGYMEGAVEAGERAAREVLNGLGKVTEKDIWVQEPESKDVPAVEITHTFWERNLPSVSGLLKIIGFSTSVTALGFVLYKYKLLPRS
The experiment in a line: Inhibition of MAOA expressed in BTI insect cells at 100 uM.

The target of experiment [4] is T2, Amine oxidase [flavin-containing] A. The experiment in a line: Inhibition of human MAOA expressed in BTI insect cells.

One may read the IC50 as the concentration that gives 50% inhibition. A low value points to greater potency.

`Cc1cc(Br)c2oc(=O)c(-c3ccccc3)cc2c1`: the half-maximal inhibitory concentration (IC50) in experiment [1] was 11.1 nM; in experiment [3] it was “Not Active”. Also, the Ratio IC50 in experiment [2] was over 9050.

As for `Cc1ccc2oc(=O)c(-c3ccccc3Br)cc2c1`, the IC50 in experiment [1] was 4300 nM; in experiment [3], “Not Active”. Also, the Ratio IC50 in experiment [2] is over 23.

With `COc1cc(-c2cc3cc(C)cc(Br)c3oc2=O)cc(OC)c1OC`, the IC50 in experiment [1] turned out to be 4890 nM; in experiment [4], 31200 nM. Besides, the Ratio IC50 in experiment [2] is 6.4.

In the case of `COc1ccc(-c2cc3cc(C)cc(Br)c3oc2=O)cc1`, the IC50 is 3.23 nM in experiment [1] and “Not Active” in experiment [3]. Moreover, the Ratio IC50 in experiment [2] is over 31000.

On to `COc1cc(OC)cc(-c2cc3cc(C)cc(Br)c3oc2=O)c1`, for which the figures for the IC50 in experiment [1] and in experiment [3] were 7.12 nM and “Not Active”, respectively. Further, the Ratio IC50 in experiment [2] was over 14000.
